In ChEMBL document CHEMBL1159090 (Bioorg Med Chem Lett, 2010) one finds Ki data, which are given here for four molecules.

The target of experiment [1] is Histamine H1 receptor (Homo sapiens, UniProt P35367). As to the kind of experiment: Displacement of [3H]Pyrilamine from human cloned histamine H1 receptor. A general note: Loss of bound radioactivity is the signal in a displacement assay; it reports binding, not function.
Experiment [2] has as its target 5-hydroxytryptamine receptor 2A (Homo sapiens, UniProt P28223). Description: Displacement of [3H]Ketanserin from human cloned 5HT2A receptor.

Sequence of 5-hydroxytryptamine receptor 2A (P28223 whole entry): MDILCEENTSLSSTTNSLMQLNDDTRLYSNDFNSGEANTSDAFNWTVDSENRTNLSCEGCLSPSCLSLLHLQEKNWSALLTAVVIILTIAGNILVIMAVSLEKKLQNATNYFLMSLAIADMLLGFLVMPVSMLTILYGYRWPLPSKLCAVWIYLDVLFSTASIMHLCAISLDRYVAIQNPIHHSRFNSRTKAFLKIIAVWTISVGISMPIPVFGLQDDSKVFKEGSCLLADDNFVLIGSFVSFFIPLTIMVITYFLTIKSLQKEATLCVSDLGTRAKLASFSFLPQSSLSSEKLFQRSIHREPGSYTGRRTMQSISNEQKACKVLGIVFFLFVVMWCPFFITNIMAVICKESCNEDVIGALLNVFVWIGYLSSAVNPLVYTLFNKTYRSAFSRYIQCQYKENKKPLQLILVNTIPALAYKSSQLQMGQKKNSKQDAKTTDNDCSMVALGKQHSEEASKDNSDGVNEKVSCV
Sequence of Histamine H1 receptor (P35367 whole entry): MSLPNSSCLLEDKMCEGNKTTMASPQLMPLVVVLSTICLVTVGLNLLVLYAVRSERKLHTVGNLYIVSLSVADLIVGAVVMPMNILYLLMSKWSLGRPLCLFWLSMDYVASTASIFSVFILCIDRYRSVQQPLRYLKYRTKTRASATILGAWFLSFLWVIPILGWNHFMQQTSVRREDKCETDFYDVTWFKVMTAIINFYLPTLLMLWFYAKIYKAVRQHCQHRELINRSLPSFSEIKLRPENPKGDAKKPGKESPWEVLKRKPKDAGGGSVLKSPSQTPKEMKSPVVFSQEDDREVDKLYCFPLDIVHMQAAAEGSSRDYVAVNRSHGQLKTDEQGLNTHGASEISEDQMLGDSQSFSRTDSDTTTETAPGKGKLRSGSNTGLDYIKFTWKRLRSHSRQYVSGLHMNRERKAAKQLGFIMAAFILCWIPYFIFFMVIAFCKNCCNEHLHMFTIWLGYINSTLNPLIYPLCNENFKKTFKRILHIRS

Usually Ki stands for the dissociation constant of the complex between target and ligand, obtained from inhibition or displacement. Read a low Ki as tighter binding. As to `c1ccc(CCNCC2c3ccccc3Cc3ccccc32)cc1`, the Ki in experiment [1] is 242 nM; in experiment [2], 400 nM.
Turning to `c1ccc(CCCCNCC2c3ccccc3Cc3ccccc32)cc1`, the Ki in experiment [1] was determined as 964 nM; in experiment [2] it was 365 nM.
For `COc1ccc2c3c(ccc2c1)Cc1ccccc1C3CN` (stereo not drawn) the same measures were 2640 nM and 21 nM.
For `c1ccc(CCCNCC2c3ccccc3Cc3ccccc32)cc1` the same measures were 725 nM and 223 nM.
